Patent US9238797B2, “Method for production of pluripotent stem cell” (TAKARA BIO INC., priority 2008, dated 2016)

Key:
[1] = test system: human adult skin fibroblast; assay: iPS cell colony induction, cell cycle arresting agent treatment (Example 3); type: cell-based; conditions: 2 days, 22nd day of culture
Protocol: According to the same manner as that of Example 1-(2), gene transfer was carried out (day 0 of culturing), provided that a plate was washed with PBS containing 1.5% human serum albumin, and centrifugation after cell seeding was not carried out. In addition, gene transfer was carried out in a combination of a retrovirus vector DON5-am-OCT4-IR-SOX2, DON5-am-LIN28-IR-NANOG, or DON5-am-KLF4.
On the seventh day of culture, according to the same manner as that of Example 1-(4), the gene-introduced cell was seeded on a feeder cell, and culturing was continued.
In addition, the agent was not added to a control. After culturing for 2 days, the medium was exchanged with a medium for ES cells, and culturing was continued until the 22nd day of culture.

[2] = test system: human adult skin fibroblast; assay: iPS cell colony induction, methylation inhibitor treatment (Example 1); conditions: 5-aza-2′-deoxycytidine 1 μM for 2 days in medium for ES cells, 28th day of culture
Protocol: Each 700 μL of the virus solution prepared in Preparation Example 2 was added to each well of the Retronectin-immobilized culture plate prepared in (1) in a combination of Table 3, respectively, and this was centrifuged at 32° C. and 2,000×g for 2 hours.
Thereafter, the supernatant was removed from each well, washed with PBS once, and each 2 mL of human adult skin fibroblast (manufactured by Lonza) suspended in 10F-DMEM to 5×10^4 cells/mL was seeded on each well. After centrifugation at 32° C. and 500×g for 10 minutes, culturing was initiated in a CO2 incubator at 37° C. (0 day of culture).
Gene transfer for the second time was carried out on the first day of culture. Each 700 μL of virus solutions prepared by Preparation Example 2 were mixed in a combination of Table 3, and polybrene (hexadimethrine.bromide; manufactured by Aldrich) was added to a final concentration of 8 μg/mL to prepare a retrovirus vector mixed solution. The supernatant was removed from a culture plate which had been cultured in (2), and this retrovirus vector mixed solution was added. After culturing in a CO2 incubator at 37° C. for 4 hours, 2 mL of 10F-DMEM was added. After further culturing for 2 days, the supernatant was removed, 2 mL of 10F-DMEM was added, and culturing was continued.
The gene-introduced cell on the seventh day of culture made in (3) was recovered, and suspended in 10F-DMEM to 5×10^4 cells/mL. 10 mL of this suspension was seeded on the feeder cell, and culturing was continued.
On the eighth day of culture (after culturing for 1 day from seeding on the feeder cell), the supernatant was removed, and 10 mL of DMEM not containing serum (0F-DMEM: obtained by removing bovine fetal serum from 10F-DMEM) was added under Protein starvation treatment conditions. […]
The number of a pluripotent stem cell (iPS cell) under each condition of protein starvation of treatment or methylation inhibitor treatment under each of conditions A, B and C was counted on the 28th day of culture.

[3] = test system: human adult skin fibroblast; assay: iPS cell colony induction, cell cycle arresting agent-2, Purvalanol A with or without Y27632 (Example 27); type: cell-based; conditions: 26th day of culture, N=2
Protocol: Regarding Purvalanol A being a Cell cycle arresting agent, for which the effect of promoting induction of a pluripotent stem cell was confirmed in Example 3, extension of the substance treatment term thereof and a combination use thereof with Y-27632 [(R) (+)-trans-4-(1-aminoethyl)-N-(4-pyridyl)cyclohexanecarboxyamide dihydrochloride] which is one of substances suppressing cell death were studied.
According to the same manner as that of Example 3-(2), gene transfer was carried out (day 0 of culturing), provided that the virus solution was added to each well by each 2 mL, by diluting 10-fold a solution obtained by mixing three kinds of vectors at an equal amount, with 10F-DMEM.
(§1) On the sixth day of culture, according to the same manner as that of Example 5-(4), the gene-introduced cell was seeded on a feeder cell, and culturing was continued.
After completion of a substance treatment term, the medium was exchanged with a medium for ES cells, and culturing was continued until the 26th day of culture. […] Regarding the condition under which substance treatment for 4 days to 6 days was carried out, the medium was exchanged at two days interval also during a substance treatment term, and the substance was added at the same concentration every time.
(§2) In addition, the number in the Table indicates an average value of N=2.

[4] = test system: human adult skin fibroblast; assay: iPS cell colony induction, cell cycle arresting agent-3, NU6140 (Example 28); type: cell-based; conditions: 2 days, 28th day of culture, N=2
Protocol: In induction culturing of a pluripotent stem cell, substance treatment with […] (manufactured by ALEXIS BIOCHEMICALS) which is one of Cell cycle arresting agents was carried out, and influence on an induction efficiency was studied.
According to the same manner as that of Example 1-(1), immobilization of Retronectin on a culture plate was carried out, provided that a non-treatment 12-well culture plate (manufactured by Becton, Dickinson and Company) was used, and each 1 mL of a Retronectin solution was added to each well.
According to the same manner as that of Example 4-(2), gene transfer was carried out (day 0 of culturing), provided that each 1 mL of the virus solution was added to each well, by diluting 100-fold a solution obtained by three kinds of vectors at an equal amount, with 10F-DMEM.
as §1
(§3) In addition, in a control, the substance was not added. After culturing for 2 days, the medium was exchanged with a medium for ES cells, and culturing was continued to the 28th day of culture.
as §2

[5] = test system: human adult skin fibroblast; assay: iPS cell colony induction, DHCP and GM (Example 29); type: cell-based; conditions: 10 μM, 2 days; 26th day of culture; N=2
Protocol: In induction culturing of a pluripotent stem cell, substance treatment with a compound DHCP produced by heating a uronic acid compound derived from an animal and a plant (International Publication No. 98/13328 pamphlet), and GM in which glutathione is added to DHCP (International Publication No. 98/39291 pamphlet) was carried out, and influence on an induction efficiency was studied.
According to the same manner as that of Example 4-(2), gene transfer was carried out (day 0 of culturing), provided that each 1 mL of the virus solution was added to each well, by diluting 10-fold a solution obtained by three kinds of vectors at an equal amount, with 10F-DMEM.
as §1, §3, §2

## NC(=O)NO [Hydroxyurea, hydroxyurea]
[1]; 10 μM
  Number of iPS cell colonies: 26
[1]; 100 μM
  Number of iPS cell colonies: 13

## Nc1ncn([C@H]2C[C@H](O)[C@@H](CO)O2)c(=O)n1 [Methylation inhibitor, 5-aza-2′-deoxycytidine]
[2]; retrovirus combination Condition A
  Number of iPS cell colonies: 11
[2]; retrovirus combination Condition B
  Number of iPS cell colonies: 25
[2]; retrovirus combination Condition C
  Number of iPS cell colonies: 8

## CC(C)[C@H](CO)Nc1nc(Nc2cccc(Cl)c2)c2ncn(C(C)C)c2n1 [Purvalanol A]
[1]; 0.1 μM
  Number of iPS cell colonies: 28
[1]; 0.5 μM
  Number of iPS cell colonies: 19
[1]; 2 μM
  Number of iPS cell colonies: 19
[3]; Condition A: 2 μM Purvalanol A, 2 days
  Number of iPS cell colonies: 26.0
[3]; Condition B: 2 μM Purvalanol A, 4 days
  Number of iPS cell colonies: 25.5
[3]; Condition C: 2 μM Purvalanol A, 6 days
  Number of iPS cell colonies: 18.5

## CCN(CC)C(=O)c1ccc(Nc2nc(OCC3CCCCC3)c3[nH]cnc3n2)cc1 [NU6140]
[4]; 0.1 μM
  Number of iPS cell colonies: 22.5
[4]; 1 μM
  Number of iPS cell colonies: 28.0

## O=C1C=CC(O)C1O (centres unmarked) [DHCP, 4,5-dihydroxy-2-cyclopentene-1-one]
[5]
  Number of iPS cell colonies: 23.5
